In patent publication US7846944B2, “Pyrazolo-pyridinone compounds and methods of use thereof” (Amgen Inc., priority 2007, dated 2010) one finds IC50 data, which are given here for ten compounds.

The target of one test is recombinant human p38α (Homo sapiens, UniProt Q16539). The experiment in a line: Purified and activated recombinant human p38α HTRF kinase assay. The format is biochemical. Particulars: 1 nM p38α, 50 μM ATP, GST-ATF2 substrate, read-out: p38a IC50. As to the method: Purified and Activated Recombinant Human p38α Assay
recombinant human p38α, sequence (Q16539 whole entry): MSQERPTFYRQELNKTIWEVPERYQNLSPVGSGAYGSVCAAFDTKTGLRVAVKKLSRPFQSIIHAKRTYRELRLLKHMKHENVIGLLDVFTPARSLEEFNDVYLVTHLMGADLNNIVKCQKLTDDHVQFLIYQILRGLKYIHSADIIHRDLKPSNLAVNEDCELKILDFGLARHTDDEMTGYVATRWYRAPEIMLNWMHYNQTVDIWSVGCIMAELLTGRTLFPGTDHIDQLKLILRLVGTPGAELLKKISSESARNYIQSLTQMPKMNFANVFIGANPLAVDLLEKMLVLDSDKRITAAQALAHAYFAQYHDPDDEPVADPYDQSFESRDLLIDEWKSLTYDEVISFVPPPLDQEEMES
• Kinase Reaction Buffer: Kinase reaction buffer for p38α HTRF assays consists of 50 mM Tris-pH 7.5, 5 mM MgCl2, 0.1 mg/mL BSA, 100 μM Na3VO4 and 0.5 mM DTT. • HTRF Detection Buffer: HTRF detection buffer contains 100 mM HEPES-pH 7.5, 100 mM NaCl, 0.1% BSA, 0.05% Tween-20, and 10 mM EDTA. • Serial Dilution of Compounds: Compounds were dissolved in 100% DMSO and serially diluted (3 fold, 10 point) in a polypropylene 96-well microtiter plate (drug plate). The final starting concentration of compounds in the p38α enzymatic assays was 1 μM. Columns 6 and 12 (HI controls and LO controls respectively) in the drug plate were reserved as controls and contained only DMSO. • Kinase Reaction The p38α kinase reactions were carried out in a polypropylene 96-well black round bottom assay plate in total volume of 30 μL kinase reaction buffer. Appropriate concentration of purified and activated enzyme (recombinant human) was mixed with indicated concentration of ATP and 100 nM GST-ATF2-Avitag, in the presence or absence (HI control) of Compound. See table below for actual concentrations. In the absence of substrate, the background was measured as LO control. The reaction was allowed to incubate for 1 hour at RT. • Assay Reagent Concentrations: The final reagent concentrations were 1 nM p38α and 50 μM ATP. […] After 60 minutes incubation at room temperature, the assay plate was read in a Discovery Plate Reader. The wells were excited with coherent 320 nm light and the ratio of delayed ([…] post excitation) emissions at […] (native europium fluorescence) and 665 nm (europium fluorescence transferred to allophycocyanin—an index of substrate phosphorylation) was determined (Park et al, 1999). • Data Analysis: The proportion of substrate phosphorylated in the kinase reaction in the presence of compound compared with that phosphorylated in the presence of DMSO vehicle alone (HI control) was calculated using the formula: % control (POC)=(compound−average LO)/(average HI−average LO)*100. Data (consisting of POC and inhibitor concentration in μM) was fitted to a 4-parameter equation (y=A+((B−A)/(1+((x/C)^D))), where A is the minimum y (POC) value, B is the maximum y (POC), C is the x (compound concentration) at the point of inflection and D is the slope factor, using a Levenburg-Marquardt non-linear regression algorithm.
The inhibition constant (Ki) of the inhibitor was estimated from the IC50 (compound concentration at the point of inflection C) using the Cheng-Prussof equation: Ki=IC50/(1+S/Km), where S is the ATP substrate concentration, and Km is the Michaelis constant for ATP as determined experimentally. All results were expressed as the mean±the standard error of the mean. Data acquisition and non-linear regression algorithms were performed using Activity Base v5.2 and XL-fit software v4.1 respectively. All data was archived using Activity Base v5.2 software.
(In general: In TR-FRET formats the signal depends on donor and acceptor labels being close together.)

Test [1] has as its system production of IL-1β, IL-6, and TNF-α by PBMC activated with LPS. As to the kind of experiment: Lipopolysaccharide-activated PBMC cytokine production assay. Particulars: LPS 100 ng/mL, 18 hours, IL-1β, IL-6, TNF-α, read-out: IC50 in the whole blood PMBC assay. The class given is cell-based. Here is the method:
Lipopolysaccharide-Activated PBMC Cytokine Production Assay
Test compounds were evaluated in vitro for the ability to inhibit the production of IL-1β, IL-6, and TNF-α by PBMC activated with bacterial lipopolysaccharide (LPS). Fresh leukocytes were obtained from a local blood bank, and peripheral blood mononuclear cells (PBMCs) were isolated by density gradient centrifugation on Ficol-Paque Plus (Pharmacia).
Preparation of Test Compound Stock Solutions
All reagents were prepared in RPMI 1640+10% v/v human AB serum+1×Pens/Strep/Glu (assay medium). Test compounds were dissolved in 100% DMSO and serially diluted in 96-well polypropylene round bottom micro titer plates (drug plate). Serial dilutions were then diluted 1:250 into assay medium to a 4× working concentration. Compound serial dilutions were half-log, 10 point titrations with a final starting concentration of 1 μM.
Treatment of Cells with Test Compounds and Activation with Lipopolysaccharide
LPS was prepared to a 4× concentration in assay medium. 100 μl of PBMC (1×10^6 cells/ml) were plated in a 96-well polystyrene flat bottom micro titer tissue culture plate and incubated with 50 μl of 4× compound serial dilution for 1 hour at 37° C., 5% CO2 in a tissue culture incubator. 50 μl 4×LPS or control was added and the plates were incubated at 37° C., 5% CO2 in a tissue culture incubator for 18 hours. The final DMSO concentration was 0.1%. The total volume was 200 μL. The final LPS concentration was 100 ng/mL. After 18 hours culture supernatants were removed and IL-1β, IL-6, and TNF-α presence in the supernatants was quantified using MSD ECL based technology.
Cytokine Measurements 20 μL of culture supernatant were added to MSD plates, and incubated for one hour at room temperature. 20 μL of detection antibody diluted in antibody diluent (1 μg/mL), and 110 μL of 2× Read Buffer P was added, and incubated for one hour at RT. Electrochemiluminescence was measured using the SECTOR HTS Imager (MSD, Gaithersburg, Md.). Data Analysis
Compound IC50 values were calculated as follows: The proportion of cytokine production in the presence of compound compared to the cytokine production in the presence of the DMSO vehicle alone (Hi control) was calculated using the formula: Percent Control (POC)=(compound−average Lo)/(average Hi−average Lo)*100.

For test [2], the system named is TNF-α secretion by LPS-treated THP1 cells. As to the kind of experiment: Lipopolysaccharide-activated THP1 cell TNF production assay. The format is cell-based. As to conditions: Homo sapiens, THP-1; LPS, 3 hours, THP1 cells; read-out: IC50 in the THP-1 cellular TNF production assay. Here is the method: Lipopolysaccharide-Activated THP1 Cell TNF Production Assay
THP1 cells were resuspended in fresh THP1 media (RPMI 1640, 10% heat-inactivated FBS, 1×PGS, 1×NEAA, plus 30 μM βME) at a concentration of 1.5×10^6 cells per mL. One hundred microliters of cells per well were plated in a polystyrene 96-well tissue culture plate. 1.5 micrograms per mL of bacterial LPS was prepared in THP1 media and transferred to the first 11 columns of a 96-well polypropylene plate. Column 12 contained only THP1 media for the LO control. Compounds were dissolved in 100% DMSO and serially diluted 3 fold in a polypropylene 96-well microtiter plate (drug plate). Columns 6 and 12 were reserved as controls (HI controls and LO controls respectively) and contained only DMSO. 10 μL of LPS followed by one microliter of inhibitor compound from the drug plate was transferred to the cell plate. The treated cells were induced to synthesize and secrete TNF-α in a 37° C. humidified incubator with 5% CO2 for 3 hours. Fifty microliters of conditioned media was transferred to a 96-well MULTI-ARRAY™ 96-well small spot plate—custom coated with MAB610 containing 100 μL of 2× Read Buffer P supplemented with 0.34 nM AF210NA polyclonal Ab labeled with ruthenium (MSD-Sulfo-TAG™-NHS ester). After an overnight incubation at room temperature with shaking, the reaction was read on the Sector Imager™ 6000. […] The amount of secreted TNF-α in the presence of AMG compounds compared with that in the presence of DMSO vehicle alone (HI control) was calculated using the formula: % control (POC)=(cpd−average LO)/(average HI−averageLO)*100. Data (consisting of POC and inhibitor concentration in μM) was fitted to a 4-parameter equation (y=A+((B−A)/(1+((x/C)^D))), where A is the minimum y (POC) value, B is the maximum y (POC), C is the x (cpd concentration) at the point of inflection and D is the slope factor) using a Levenburg-Marquardt non-linear regression algorithm.

In test [3] the test system is secreted IL-8 by whole blood activated with TNF-α. The experiment in a line: Inhibition of TNF-α induced IL-8 in 50% human whole blood. The class given is cell-based. As to conditions: Homo sapiens, TNF-α (1 nM) induced IL-8, 50% human whole blood; read-out: WB TNF/IL8 IC50. Here is the method: Inhibition of TNF-α Induced IL-8 in 50% Human Whole Blood
Test compounds were evaluated in vitro for the ability to inhibit the production of secreted IL-8 by whole blood activated with TNF-α. Fresh human whole blood was obtained from healthy, non-medicated volunteers in sodium heparin tubes.
Compound Dilution—Assay Procedure
100 ul heparinized whole blood is plated into wells of 96 well flat bottom plates. 50 ul of either 4× compound or DMSO control (Final DMSO concentration is 0.1%) are added to the appropriate wells. Plates are incubated for 1 hour at 37 degrees Celsius. 50 ul of 4×TNF-α ([…], for a final concentration of 1 nM) or control (media alone) is added to the appropriate wells (Total volume=200 ul). Plates are incubated overnight (16-18 hours). 100 ul of supernatant is collected and stored in 96-well round bottom polypropylene plates at −80 degrees Celsius or assayed immediately for IL-8.
Cytokines are measured on antibody (Ab) sandwich ECL based 96-well detection plates. 20 ul of supernatant are added to plate and plate is sealed and shaken at RT for 1 hour. 130 ul of detection Ab cocktail is added and plates are sealed and shaken for 1 hour in the dark at RT. Plates are read on MSD Sector HTS instrument. Data are analyzed and IC50 values generated using Activity Base and XI-fit programs.

pIC50: −log10 of the molar value.

As to `Cc1ccc(C(=O)NC2CC2)cc1-c1cc2cnn(-c3ccccc3Cl)c2n(C)c1=O` [Example 12, 3-(1-(2-chlorophenyl)-7-methyl-6-oxo-6,7-dihydro-1H-pyrazolo[3,4-b]pyridin-5-yl)-N-cyclopropyl-4-methylbenzamide], the pIC50 at recombinant human p38α is 8.74; in test [1], at least 6.90; in test [2], at least 6.76.

As to `COc1ccc(C(F)(F)F)cc1NC(=O)c1ccc(C)c(-c2cc3cnn(-c4c(F)cccc4F)c3n(C)c2=O)c1` [Example 45, 3-(1-(2,6-difluorophenyl)-7-methyl-6-oxo-6,7-dihydro-1H-pyrazolo[3,4-b]pyridin-5-yl)-4-methyl-N-(2-(methyloxy)-5-(trifluoromethyl)phenyl)benzamide], the pIC50 on recombinant human p38α was 8.11; in test [3], at most 5.60; in test [2] it was at least 6.76.

Regarding `Cc1c(F)cc(C(N)=O)cc1-c1cc2cnn(-c3c(F)cccc3F)c2n(C)c1=O` [Example 31, 3-(1-(2,6-difluorophenyl)-7-methyl-6-oxo-6,7-dihydro-1H-pyrazolo[3,4-b]pyridin-5-yl)-5-fluoro-4-methylbenzamide], the pIC50 on recombinant human p38α is 9.00; in test [1], at least 6.90; in test [2], at least 6.76.

Regarding `Cc1ccc(C(=O)O)cc1-c1cc2cnn(-c3ccc(F)cc3F)c2n(C)c1=O` [Example 41, 3-(1-(2,4-difluorophenyl)-7-methyl-6-oxo-6,7-dihydro-1H-pyrazolo[3,4-b]pyridin-5-yl)-4-methylbenzoic acid], the pIC50 at recombinant human p38α was 6.00; in test [3], at most 5.60; in test [2], at least 6.76.

Regarding `Cc1ccc(N)cc1-c1cc2cnn(-c3ccc(F)cc3F)c2n(C)c1=O` [Example 37, 5-(5-amino-2-methylphenyl)-1-(2,4-difluorophenyl)-7-methyl-1,7-dihydro-6H-pyrazolo[3,4-b]pyridin-6-one], the pIC50 in test [3] is 6.49; in test [2], at least 6.76.

Take `Cc1c(F)cc(C(=O)Nc2ccon2)cc1-c1cc2cnn(-c3c(F)cccc3F)c2n(C)c1=O` [Example 3, 3-(1-(2,6-difluorophenyl)-7-methyl-6-oxo-6,7-dihydro-1H-pyrazolo[3,4-b]pyridin-5-yl)-5-fluoro-N-3-isoxazolyl-4-methylbenzamide]: the pIC50 at recombinant human p38α was 8.62; in test [1], at least 6.90; in test [2], at least 6.76.

For the compound `Cc1c(F)cc(C(=O)NC2CC2)cc1-c1cc2cnn(-c3c(F)cccc3F)c2n(C)c1=O` [Example 2, N-cyclopropyl-3-(1-(2,6-difluorophenyl)-7-methyl-6-oxo-6,7-dihydro-1H-pyrazolo[3,4-b]pyridin-5-yl)-5-fluoro-4-methylbenzamide], the values for the pIC50 (on recombinant human p38α; in test [1]; in test [2]) were 8.74, at least 6.90 and at least 6.76, respectively.

On to `Cc1c(F)cc(C(=O)NC2CC2)cc1-c1cc2cnn(-c3ccccc3Cl)c2n(C)c1=O` [Example 8, 3-(1-(2-chlorophenyl)-7-methyl-6-oxo-6,7-dihydro-1H-pyrazolo[3,4-b]pyridin-5-yl)-N-cyclopropyl-5-fluoro-4-methylbenzamide], for which the values for the pIC50 (on recombinant human p38α; in test [1]; in test [2]) were 8.64, at least 6.90 and at least 6.76, respectively.

Consider `Cc1ccc(C(=O)O)cc1-c1cc2cnn(-c3c(F)cccc3F)c2n(C)c1=O` [Example 38, 3-(1-(2,6-difluorophenyl)-7-methyl-6-oxo-6,7-dihydro-1H-pyrazolo[3,4-b]pyridin-5-yl)-4-methylbenzoic acid], for which the pIC50 on recombinant human p38α was 6.15; in test [3] it was at most 5.60.

Take `Cc1ccc(NC(=O)NC2CC2)cc1-c1cc2cnn(-c3c(F)cccc3F)c2n(C)c1=O` [Example 36, 1-cyclopropyl-3-(3-(1-(2,6-difluorophenyl)-7-methyl-6-oxo-6,7-dihydro-1H-pyrazolo[3,4-b]pyridin-5-yl)-4-methylphenyl)urea]: the values for the pIC50 in test [3] and in test [2] were 6.58 and at least 6.76, respectively.
